These results are taken from patent publication US20030095937A1, “Method for stimulating hair growth by administering vitamin D analogs” (priority 2001, published 2003).

Data set [1] has as its system MCF-7 breast cancer cells. Briefly: Inhibition of clonal growth of MCF-7 cells. Format: cell-based, human. The conditions noted are these: effective dose that inhibited 50% clonal growth of MCF-7 breast cancer cells.
For data set [2], the system named is BNX nu/nu mice. Description: Hair growth scoring in nude mice. Also noted: key: 1: Skin pink, no hair; 2: Skin thick, pigmented, no hair; 3: Skin thick, highly pigmented, no hair; 4: Skin thick, pigmented, scattered hair; 5: Hair 1-10% of area; 6: Hair 10-25% of area; 7: Hair 25-50% of area; 8: Hair 50-75% of area; 9: Hair >75% of area; Hair 100% covered. Format: in vivo. The conditions noted are these: male nude mice, i.p. 3 times a week, at least 35 days, hair score scale 1-10.

Data set [3] is described as follows: Calcemic properties: highest dose that would not cause hypercalcemia. Format: in vivo, mouse. The conditions noted are these: identified in previous experiments. The protocol:
(§1) Vitamin D3 analogs were dissolved in absolute ethanol prior to determining the molar concentration as measured by UV absorbance using their molar extinction coefficient at […]. All the analogs were stored at −20° C. in absolute ethanol as stock solutions of 10^−3 mol/liter. The last dilution was made in phosphate buffered saline, prior to administration into mice. Vitamin D3 compounds were always protected from light. The inventors chose the highest dose that would not cause hypercalcemia. These doses, identified in previous experiments, are summarized below in Table 1.

Data set [4] relates to human HL60 myeloid leukemia cells. Description: Inhibition of clonal growth of HL60 cells. Format: cell-based. The conditions noted are these: effective dose that inhibited 50% clonal growth of human HL60 myeloid leukemia cells.
Data set [5] deals with BNX nu/nu mice. Description: Hair growth scoring in nude mice. Format: in vivo. The arrangement: key to Peak Score, Mouse 2: 1: Skin pink, no hair; 2: Skin thick, pigmented, no hair; 3: Skin thick, highly pigmented, no hair; 4: Skin thick, pigmented, scattered hair; 5: Hair 1-10% of area; 6: Hair 10-25% of area; 7: Hair 25-50% of area; 8: Hair 50-75% of area; 9: Hair >75% of area; Hair 100% covered. The protocol: In the experiments described herein, BNX nu/nu male and female mice at 8 weeks of age were used. In one series of experiments, a total of 3 males were allotted equally within each of the groups consisting of 6 different vitamin D3 compounds, and a control untreated group. In an addition, three male and 3 female mice received EB1089. All of the analogs were injected intraperitoneally (i.p.), three times a week in a volume of 200 μl phosphate buffered saline.
as §1
The inventors developed the following scale for measuring hair growth in BNX mice:
The inventors examined hair growth of nude mice as the mice received diluant (control mice), 1.25(OH)2D3 or one of 6 vitamin D3 analogs. Each group contained three mice. The effect of Vitamin D3 analogs on hair growth of nude mice was systematically assessed on each mouse by giving them scores from a scale of 1-10 (Table1), 3 times a week. The score for hair growth takes in to account the thickness and pigmentation, as both of these characteristics correlate indirectly with induction of anagen, the growth phase of the hair cycle. For example, a score of […] represents skin thickening with heavy pigmentation; this reflects the formation of the hair shaft prior to the protrusion of hair above the skin surface.

Data set [6] has as its system CYP19 gene that encodes the P450 aromatase. Briefly: RT-PCR RNA analysis of skin samples for CYP19 expression. Format: in vivo, mice. The conditions noted are these: skin samples at the highest score of 7, RT-PCR, data not shown. The protocol:
Skin samples from mice were processed as is routinely done in the art. RT-PCR was performed to make cDNA which was examined for expression of CYP19 gene that encodes the P450 aromatase (9).
Skin samples at the highest score of 7 from Ro-25-9022 and control skin sample were processed to extract RNA, cDNA was made and amplified for the expression of CYP19 gene that encodes P450 aromatase.

Setting [7] is: male nude mice, i.p. 3 times a week, at least 35 days, hair score scale 1-10.
Setting [8] is: male nude mice, three mice per group, i.p. 3 times a week, hair score scale 1-10.
[9] abbreviates: female nude mice, i.p. 3 times a week, hair score scale 1-10.

Consider `C=C1/C(=C\C=C2/CCC[C@]3(C)[C@@H]([C@H](C)CCCC(C)(C)O)CC[C@@H]23)C[C@@H](O)C[C@@H]1O` [1,25(OH)2D3, reference compound], for which, in data set [1], the “ED50 MCF-7” value is 1 × 10^−7 MOLAR UNITS. In addition, the “Peak Score, Mouse 3” value in the data set with BNX nu/nu mice [2] worked out at 4. Besides, in data set [3], the “NON-HYPERCALCEMIC DOSE” value is on record as 0.0626 μg/mouse. In data set [4], the “ED50 HL60” value is listed as 1 × 10^−8 MOLAR UNITS. Further, in the data set with BNX nu/nu mice [5] (setting [7]), the “Peak Score, Mouse 1” value was 5 (Hair 1-10% of area) and the “Peak Score, Mouse 2” value is given as 5 (Hair 1-10% of area). Besides, in the data set on BNX nu/nu mice [5] (setting [8]), the “Mean Peak Score” value amounted to 4.67. In the data set with BNX nu/nu mice [5] (nude mice, scored 3 times a week, scale 1-10), the “hair growth score reached, not exceeded” value was 5 (Hair 1-10% of area).
As to `C=C1/C(=C\C=C2/CCC[C@]3(C)[C@@H]([C@H](C)/C=C/C=C/C(O)(CC)CC)CC[C@@H]23)C[C@@H](O)C[C@@H]1O` [EB1089], the entries for the “Peak Score, Mouse 3” value in the data set on BNX nu/nu mice [2] and in the data set on BNX nu/nu mice [5] (setting [9]) were 4 and 7 (Hair 25-50% of area), respectively. Besides, the “NON-HYPERCALCEMIC DOSE” value in data set [3] is 0.5 µg/kg. Moreover, the “ED50 HL60” value in data set [4] is recorded as 5 × 10^−11 MOLAR UNITS. The “timing of first peak of hair growth, females vs males” value in the data set on BNX nu/nu mice [5] (FIG. 3F) was “first peak of hair growth in females slightly preceded the peak in the males”. The “ability to stimulate hair growth in male and female mice” value in the data set with BNX nu/nu mice [5] (both males and females) was “Both males and females had hair stimulation”. Besides, the “latency period to achieve maximal hair growth” value (“latency period” for short) in the data set on BNX nu/nu mice [5] (female nude mice) is reported as “about 9 days”; in the data set on BNX nu/nu mice [5] (male nude mice) it was “about 18 days”. Further, the “Peak Score, Mouse 1” value in the data set with BNX nu/nu mice [5] (setting [9]) and with BNX nu/nu mice [5] (setting [7]) was 7 (Hair 25-50% of area) throughout. For the same molecule, the “Peak Score, Mouse 2” value in the data set with BNX nu/nu mice [5] (setting [9]) was 7 (Hair 25-50% of area); with BNX nu/nu mice [5] (setting [7]), 8 (Hair 50-75% of area). Further, the “Mean Peak Score” value with BNX nu/nu mice [5] (female nude mice, three mice, i.p. 3 times a week, hair score scale 1-10) was 7.00; with BNX nu/nu mice [5] (setting [8]) it was 6.33. Further, the “time of second cycle of hair growth from the first cycle” value (“time of second cycle of hair growth” for short) in the data set with BNX nu/nu mice [5] (nude mice) is listed as “about 16 days”.
For `C=C1/C(=C\C=C2/CCC[C@]3(C)[C@@H]([C@@H](C)OCCCC(O)(CC)CC)CC[C@@H]23)C[C@@H](O)C[C@@H]1O` [KH1060, 1α, 25—(OH)2-20-epi-22-oxa-24,26,27-trishomo-vitamin D3], the “ED50 MCF-7” value in data set [1] was 1 × 10^−10 MOLAR UNITS. In addition, in the data set with BNX nu/nu mice [2], the “Peak Score, Mouse 3” value is 6 (Hair 10-25% of area). Also, in data set [3], the “NON-HYPERCALCEMIC DOSE” value is reported as 0.0125 μg/mouse. The “ED50 HL60” value in data set [4] is 1 × 10^−12 MOLAR UNITS. For the same molecule, in the data set with BNX nu/nu mice [5] (male nude mice), the “latency period” value was about 21 days. Besides, in the data set with BNX nu/nu mice [5] (setting [7]), the “Peak Score, Mouse 1” value is 8 (Hair 50-75% of area) and the “Peak Score, Mouse 2” value is listed as 6 (Hair 10-25% of area). Also, in the data set with BNX nu/nu mice [5] (setting [8]), the “Mean Peak Score” value is reported as 6.67.
`C[C@H](C/C=C/C(O)(C(F)(F)F)C(F)(F)F)C1=CCC2/C(=C/C=C3C[C@@H](O)C[C@H](O)C3)CCC[C@]12C` (stereo partly shown) [Ro25-9022, 1,25-(OH)2-16-ene-23-yne-26,27-F6-19-nor-D3]: the “ED50 MCF-7” value in data set [1] was 6 × 10^−10 MOLAR UNITS. For the same molecule, the “Peak Score, Mouse 3” value in the data set with BNX nu/nu mice [2] amounted to 4. The “expression of CYP19 gene (P450 aromatase) vs control skin sample” value in data set [6] is listed as “equivalent expression”. Further, the “NON-HYPERCALCEMIC DOSE” value in data set [3] is given as 0.00125 μg/mouse. The “ED50 HL60” value in data set [4] is recorded as 2 × 10^−10 MOLAR UNITS. In the data set with BNX nu/nu mice [5] (setting [7]), the “Peak Score, Mouse 1” value is listed as 8 (Hair 50-75% of area) and the “Peak Score, Mouse 2” value turned out to be 4. The “Mean Peak Score” value with BNX nu/nu mice [5] (setting [8]) is 6.33.
With `C[C@H](CCC(=O)C(C)(C)O)C1=CCC2/C(=C/C=C3C[C@@H](O)C[C@H](O)C3)CCC[C@]12C` (stereo partly shown) [Ro26-9114], the “Peak Score, Mouse 3” value in the data set on BNX nu/nu mice [2] is given as 4. Further, the “NON-HYPERCALCEMIC DOSE” value in data set [3] is 6 μg/mouse. In data set [4], the “ED50 HL60” value is 1 × 10^−10 MOLAR UNITS. Further, the “latency period” value with BNX nu/nu mice [5] (male nude mice) is “about 9 days”. In the data set on BNX nu/nu mice [5] (setting [7]), the “Peak Score, Mouse 1” value is listed as 8 (Hair 50-75% of area) and the “Peak Score, Mouse 2” value is recorded as 8 (Hair 50-75% of area). Moreover, in the data set with BNX nu/nu mice [5] (setting [8]), the “Mean Peak Score” value is 5.33. The “time of second cycle of hair growth” value in the data set with BNX nu/nu mice [5] (nude mice) is “about 16 days”.
For `C[C@]12CCC/C(=C\C=C3C[C@@H](O)C[C@H](O)C3)C1CC[C@@H]2C1(C/C=C/C(O)(C(F)(F)F)C(F)(F)F)CC1` (stereo partly shown) [Ro27-0574], the “ED50 MCF-7” value in data set [1] was 2 × 10^−9 MOLAR UNITS. Also, the “Peak Score, Mouse 3” value in the data set on BNX nu/nu mice [2] is 4. Besides, in data set [4], the “ED50 HL60” value is given as 2 × 10^−10 MOLAR UNITS. Also, in the data set with BNX nu/nu mice [5] (setting [7]), the “Peak Score, Mouse 1” value is recorded as 8 (Hair 50-75% of area) and the “Peak Score, Mouse 2” value is given as 8 (Hair 50-75% of area). Also, the “Mean Peak Score” value in the data set on BNX nu/nu mice [5] (setting [8]) is listed as 6.67. Moreover, in the data set with BNX nu/nu mice [5] (nude mice), the “time of second cycle of hair growth” value is listed as “about 16 days”.
On to `CC(C)(O)CCCC(CCCC(C)(C)O)[C@H]1CCC2/C(=C/C=C3C[C@@H](O)C[C@H](O)C3)CCC[C@@]21C` (stereo partly shown) [Ro27-5646], for which the “ED50 MCF-7” value in data set [1] is reported as 4 × 10^−10 MOLAR UNITS. The “Peak Score, Mouse 3” value in the data set with BNX nu/nu mice [2] is 6 (Hair 10-25% of area). For the same molecule, in data set [3], the “NON-HYPERCALCEMIC DOSE” value is given as 0.01 μg/mouse. The “ED50 HL60” value in data set [4] is 2 × 10^−10 MOLAR UNITS. Also, in the data set with BNX nu/nu mice [5] (setting [7]), the “Peak Score, Mouse 1” value is 8 (Hair 50-75% of area) and the “Peak Score, Mouse 2” value is given as 8 (Hair 50-75% of area). Further, the “Mean Peak Score” value with BNX nu/nu mice [5] (setting [8]) was determined as 7.33.
